# Results: ChEMBL document CHEMBL3885861, “Open TG-GATES”
# Species on record: Rattus norvegicus
# Assay: Open TG-GATES - Regimen: Daily Repeat
# Assay type: toxicity, organism-based, Sprague-Dawley
# Parameters: regimen Daily Repeat, gender Male, age 6 weeks
# Conditions: in vivo, po, 100 mg/kg, route gavage, dose level High; for Bas / Eos / Fbg / Hb / Ht / MCH / MCHC / MCV / Mono / Neu / PT / Plat / RBC / Ret / WBC / APTT / Lym: tissue Blood; for KIDNEY_L / KIDNEY_R / KIDNEY_TOTAL: tissue Kidney; for LIVER: tissue Liver; for ALP / AST / BUN / CRE / Ca / Cl / DBIL / GLC / IP / LDH / Na / PL / RALB / TBIL / TC / TG / TP / gamma-GTP: tissue Plasma
smiles,measurement,setting,value
CC(=O)N1CCN(c2ccc(OCC3COC(Cn4ccnc4)(c4ccc(Cl)cc4Cl)O3)cc2)CC1 (stereo unspecified) [KETOCONAZOLE],Bas,"72 h, time 3 day",0%
same,Eos,"72 h, time 3 day",0.8%
same,Fbg,"72 h, time 3 day",321 mg/dL
same,Hb,"72 h, time 3 day",13.3 g/dL
same,Ht,"72 h, time 3 day",39.8%
same,MCH,"72 h, time 3 day",20.9 pg
same,MCHC,"72 h, time 3 day",33.5%
same,MCV,"72 h, time 3 day",62.4 fL
same,Mono,"72 h, time 3 day",2.8%
same,Neu,"72 h, time 3 day",16.2%
same,PT,"72 h, time 3 day",16.2 s
same,Plat,"72 h, time 3 day",128.4 x10_4/uL
same,RBC,"72 h, time 3 day",639 x10_4/ul
same,Ret,"72 h, time 3 day",5.2%
same,WBC,"72 h, time 3 day",83.5 x10_2/uL
same,KIDNEY_L,"72 h, time 3 day",1.1 g
same,KIDNEY_R,"72 h, time 3 day",1 g
same,KIDNEY_TOTAL,"72 h, time 3 day",2.1 g
same,LIVER,"72 h, time 3 day",12.1 g
same,ALP,"72 h, time 3 day",1481 IU/L
same,AST,"72 h, time 3 day",63.8 IU/L
same,BUN,"72 h, time 3 day",19.2 mg/dL
same,CRE,"72 h, time 3 day",0.2 mg/dL
same,Ca,"72 h, time 3 day",10.8 mg/dL
same,Cl,"72 h, time 3 day",105.6 meq/L
same,DBIL,"72 h, time 3 day",0 mg/dL
same,GLC,"72 h, time 3 day",179.6 mg/dL
same,IP,"72 h, time 3 day",7 mg/dL
same,LDH,"72 h, time 3 day",261.8 IU/L
same,Na,"72 h, time 3 day",141 meq/L
same,PL,"72 h, time 3 day",133.6 mg/dL
same,RALB,"72 h, time 3 day",3 g/dL
same,TBIL,"72 h, time 3 day",0.004 mg/dL
same,TC,"72 h, time 3 day",72.4 mg/dL
same,TG,"72 h, time 3 day",73.2 mg/dL
same,TP,"72 h, time 3 day",5.8 g/dL
same,gamma-GTP,"72 h, time 3 day",1.6 IU/L
same,TERMINAL_BW,"[…], time 7 day",256.9 g
same,TERMINAL_BW,"[…], time 14 day",298.5 g
same,TERMINAL_BW,"[…], time 28 day",353.3 g
same,APTT,"[…], time 7 day",20.6 s
same,Bas,"[…], time 7 day",0%
same,Eos,"[…], time 7 day",0.4%
same,Fbg,"[…], time 7 day",302.4 mg/dL
same,Hb,"[…], time 7 day",12.9 g/dL
same,Ht,"[…], time 7 day",38.5%
same,Lym,"[…], time 7 day",79.4%
same,MCH,"[…], time 7 day",21 pg
same,MCHC,"[…], time 7 day",33.6%
same,MCV,"[…], time 7 day",62.6 fL
same,Mono,"[…], time 7 day",1.2%
same,Neu,"[…], time 7 day",17.6%
same,PT,"[…], time 7 day",16.1 s
same,Plat,"[…], time 7 day",111.5 x10_4/uL
same,RBC,"[…], time 7 day",616.2 x10_4/ul
same,Ret,"[…], time 7 day",5.5%
same,WBC,"[…], time 7 day",106.4 x10_2/uL
same,APTT,"[…], time 14 day",20.9 s
same,Bas,"[…], time 14 day",0%
same,Eos,"[…], time 14 day",0.4%
same,Fbg,"[…], time 14 day",316 mg/dL
same,Hb,"[…], time 14 day",13.9 g/dL
same,Ht,"[…], time 14 day",41.6%
same,Lym,"[…], time 14 day",72.4%
same,MCH,"[…], time 14 day",20.3 pg
same,MCHC,"[…], time 14 day",33.5%
same,MCV,"[…], time 14 day",60.6 fL
same,Mono,"[…], time 14 day",1.4%
same,Neu,"[…], time 14 day",24.6%
same,PT,"[…], time 14 day",16.3 s
same,Plat,"[…], time 14 day",122.8 x10_4/uL
same,RBC,"[…], time 14 day",687.8 x10_4/ul
same,Ret,"[…], time 14 day",4.5%
same,WBC,"[…], time 14 day",85.7 x10_2/uL
same,APTT,"[…], time 28 day",23.2 s
same,Bas,"[…], time 28 day",0%
same,Eos,"[…], time 28 day",1.2%
same,Fbg,"[…], time 28 day",314.2 mg/dL
same,Hb,"[…], time 28 day",14.5 g/dL
same,Ht,"[…], time 28 day",42.3%
same,Lym,"[…], time 28 day",72%
same,MCH,"[…], time 28 day",19.1 pg
same,MCHC,"[…], time 28 day",34.2%
same,MCV,"[…], time 28 day",55.8 fL
same,Mono,"[…], time 28 day",1.8%
same,Neu,"[…], time 28 day",24%
same,PT,"[…], time 28 day",17.1 s
same,Plat,"[…], time 28 day",109.8 x10_4/uL
same,RBC,"[…], time 28 day",758.8 x10_4/ul
same,Ret,"[…], time 28 day",3%
same,WBC,"[…], time 28 day",86.3 x10_2/uL
same,KIDNEY_L,"[…], time 7 day",1.2 g
same,KIDNEY_R,"[…], time 7 day",1.2 g
same,KIDNEY_TOTAL,"[…], time 7 day",2.4 g
same,KIDNEY_L,"[…], time 14 day",1.3 g
same,KIDNEY_R,"[…], time 14 day",1.3 g
same,KIDNEY_TOTAL,"[…], time 14 day",2.6 g
same,KIDNEY_L,"[…], time 28 day",1.4 g
same,KIDNEY_R,"[…], time 28 day",1.4 g
same,KIDNEY_TOTAL,"[…], time 28 day",2.8 g
same,LIVER,"[…], time 14 day",15 g
same,LIVER,"[…], time 28 day",16.1 g
same,ALP,"[…], time 7 day",1138 IU/L
same,AST,"[…], time 7 day",64.8 IU/L
same,BUN,"[…], time 7 day",17.2 mg/dL
same,CRE,"[…], time 7 day",0.1 mg/dL
same,Ca,"[…], time 7 day",10.8 mg/dL
same,Cl,"[…], time 7 day",107.6 meq/L
same,DBIL,"[…], time 7 day",0 mg/dL
same,GLC,"[…], time 7 day",189.6 mg/dL
same,IP,"[…], time 7 day",7 mg/dL
same,LDH,"[…], time 7 day",203 IU/L
same,Na,"[…], time 7 day",143.6 meq/L
same,PL,"[…], time 7 day",119.6 mg/dL
same,RALB,"[…], time 7 day",2.9 g/dL
same,TBIL,"[…], time 7 day",0 mg/dL
same,TC,"[…], time 7 day",62.4 mg/dL
same,TG,"[…], time 7 day",73.8 mg/dL
same,TP,"[…], time 7 day",5.8 g/dL
same,gamma-GTP,"[…], time 7 day",1 IU/L
same,ALP,"[…], time 14 day",1375.6 IU/L
same,AST,"[…], time 14 day",67.8 IU/L
same,BUN,"[…], time 14 day",16.8 mg/dL
same,CRE,"[…], time 14 day",0.1 mg/dL
same,Ca,"[…], time 14 day",10.4 mg/dL
same,Cl,"[…], time 14 day",106 meq/L
same,DBIL,"[…], time 14 day",0 mg/dL
same,GLC,"[…], time 14 day",177.8 mg/dL
same,IP,"[…], time 14 day",6.3 mg/dL
same,LDH,"[…], time 14 day",194.4 IU/L
same,Na,"[…], time 14 day",143.8 meq/L
same,PL,"[…], time 14 day",138.2 mg/dL
same,RALB,"[…], time 14 day",3.1 g/dL
same,TBIL,"[…], time 14 day",0.004 mg/dL
same,TC,"[…], time 14 day",70.4 mg/dL
same,TG,"[…], time 14 day",114.8 mg/dL
same,TP,"[…], time 14 day",6 g/dL
same,gamma-GTP,"[…], time 14 day",1.2 IU/L
same,ALP,"[…], time 28 day",1014.6 IU/L
same,AST,"[…], time 28 day",65.8 IU/L
same,BUN,"[…], time 28 day",16.8 mg/dL
same,CRE,"[…], time 28 day",0.2 mg/dL
same,Ca,"[…], time 28 day",10.3 mg/dL
same,Cl,"[…], time 28 day",106.8 meq/L
same,DBIL,"[…], time 28 day",0 mg/dL
same,GLC,"[…], time 28 day",187.6 mg/dL
same,IP,"[…], time 28 day",5.9 mg/dL
same,LDH,"[…], time 28 day",154 IU/L
same,Na,"[…], time 28 day",142.2 meq/L
same,PL,"[…], time 28 day",111.8 mg/dL
same,RALB,"[…], time 28 day",3.2 g/dL
same,TBIL,"[…], time 28 day",0.016 mg/dL
same,TC,"[…], time 28 day",57 mg/dL
same,TG,"[…], time 28 day",56.4 mg/dL
same,TP,"[…], time 28 day",6.1 g/dL
same,gamma-GTP,"[…], time 28 day",1.6 IU/L
